Laboratory results from ChEMBL document CHEMBL1156588, “Structure-activity relationships of chiral selective norepinephrine reuptake inhibitors (sNRI) with increased oxidative stability” (Bioorg Med Chem Lett, 2008).

Assay: Terminal half life in human
Assay type: ADME, organism-based
Settings: in vivo

Row | half-life [h] | SMILES
1 | 3 | CNCC[C@@H](Oc1ccccc1C)c1ccccc1 [ATOMOXETINE]

Assay: in vitro
Settings: human, liver microsomes

Row | CLint scaled at 1 h, 1 µM [mL/min/kg] | SMILES
2 | ≤ 3 | CNC[C@@H]1OCc2ccccc2[C@@H]1Oc1c(C)cccc1F
3 | ≤ 3 | CCc1ccccc1O[C@H]1c2ccccc2OC[C@H]1CNC
4 | 21 | CNC[C@@H]1OCc2ccccc2[C@@H]1Oc1cccc(F)c1C
5 | 9 | CNC[C@@H]1COc2ccccc2[C@@H]1Oc1ccccc1Cl
6 | 4 | CNC[C@@H]1OCc2ccccc2[C@@H]1Oc1ccc(O)cc1C
7 | 50 | CNCC[C@@H](Oc1ccccc1C)c1ccccc1 [ATOMOXETINE]
8 | 8 | CNC[C@@H]1OCc2ccccc2[C@@H]1Oc1ccccc1Cl
9 | 10 | CNC[C@@H]1OCc2ccccc2[C@@H]1Oc1ccccc1C(F)(F)F
10 | ≤ 3 | CNC[C@@H]1OCc2ccccc2[C@@H]1Oc1c(F)cccc1C(F)(F)F
